The values below come from publication PMC10111022, “Comparison of pharmacological inhibitors of lysine-specific demethylase 1 in glioblastoma stem cells reveals inhibitor-specific efficacy profiles” (Frontiers in Neurology, 2023).

As usually defined, the IC50 is the midpoint of a concentration-inhibition curve.

The subject of one data set is MDA-GSC 7–2. In words: Cell viability dose response (IC50), MDA-GSC 7–2. It counts as cell-based. Particulars: Homo sapiens, mean of three independent experiments. The procedure:
(§1) MDA-GSCs were plated at 50,000 cells/well into 12-well plates at and allowed to grow for 5 days until neurospheres were formed. The cells were then treated with either TCP, GSK-LSD1, or RN-1 at various concentrations for 5 days. Next, the cells were collected and neurospheres were dissociated with Accutase (BioLegend; San Diego, CA). Cell viability was determined using a trypan dye exclusion assay and read with the Vi-Cell XR Cell Viability Analyzer (Beckman Coulter; Brea, CA). NHAs were plated at 50,000 cells/well into 12-well plates and allowed to adhere overnight. The following day, NHAs were treated with the LSD1 inhibitors. After 5 days, the cells were detached using TrypLE and assessed with the trypan blue dye exclusion assay.
(§2) The alamarBlue cell viability (Bio-Rad; Hercules, CA) was performed on the MDA-GSCs according to the manufacturer’s protocol. The cells were plated at 5,000 cell/well into a 96-well plate and allowed to grow for 5 days. After 5 days, the alamarBlue reagent was added and fluorescence was measured with the Synergy 2 (BioTek Instruments; Winooski, VT) plate reader according to the manufacturer’s protocol.

A further data set relates to MDA-GSC 8–11. Put plainly: Cell viability dose response (IC50), MDA-GSC 8–11. It counts as cell-based. The settings on record: Homo sapiens, mean of three independent experiments. The procedure: as §1, §2
The next data set deals with MDA-GSC 262. Put plainly: Cell viability dose response (IC50), MDA-GSC 262. It counts as cell-based. The settings on record: Homo sapiens, mean of three independent experiments. Here is the method: as §1, §2
The subject of another data set is MDA-GSC 23. In words: Cell viability dose response (IC50), MDA-GSC 23. It counts as cell-based. The settings on record: Homo sapiens, mean of three independent experiments. Here is the method:
as §1, §2

A further data set deals with MDA-GSC 311. Put plainly: Cell viability dose response (IC50), MDA-GSC 311. It counts as cell-based. Particulars: Homo sapiens, mean of three independent experiments. The procedure:
as §1, §2

Another data set has as its system MDA-GSC 20. In words: Cell viability dose response (IC50), MDA-GSC 20. It counts as cell-based. The settings on record: Homo sapiens, mean of three independent experiments. Here is the method:
as §1, §2

In the next data set the test system is MDA-GSC 17. In words: Cell viability dose response (IC50), MDA-GSC 17. It counts as cell-based. Particulars: Homo sapiens, mean of three independent experiments. Here is the method: as §1, §2
On the set-up of data set [1]: method as in PMID 34786883, PMID 33052756. The settings on record: safety studies; cited from earlier work.
The subject of the next data set is MDA-GSC 6–27. Put plainly: Cell viability dose response (IC50), MDA-GSC 6–27. It counts as cell-based. Particulars: Homo sapiens, mean of three independent experiments. Here is the method: as §1, §2
The subject of a further data set is NHA. Put plainly: Cell viability dose response (IC50), normal human astrocytes. It counts as cell-based. The settings on record: for IC50: Homo sapiens, Astrocyte, mean of three independent experiments; for effect on NHA viability: NHA treated at the maximum concentration tested for each compound. Here is the method: as §1, §2
Another data set deals with MDA-GSC 7–11. In words: Cell viability dose response (IC50), MDA-GSC 7–11. It counts as cell-based. The settings on record: Homo sapiens, mean of three independent experiments. Here is the method:
as §1, §2

The test system of the next data set is MDA-GSC lines. In words: Cell viability across the panel of nine MDA-GSC lines. Particulars: for concentrations at which MDA-GSC viability was reduced: many/several MDA-GSC lines, dose response curves Figure 2. It counts as cell-based, Human. Here is the method:
as §1, §2

Details of data set [2]: method as in personal communications, Salarius Pharmaceuticals. Particulars: ref personal communications, Salarius Pharmaceuticals; cited from earlier work.
A further data set deals with MDA-GSC8-11. Put plainly: qPCR of resistance-related genes, MDA-GSC8-11. It counts as cell-based, Human. Particulars: MDA-GSC8-11 (resistant). The procedure: (§3) Total RNA was extracted using RNeasy Plus Mini Kit (Qiagen; Hilden, Germany) following the manufacturer’s protocol. cDNA was synthesized with the iScript cDNA synthesis kit (Bio-Rad; Hercules, CA), qPCR was performed using Forget-Me-Not EvaGreen qPCR kit (Biotium; Fremont, CA), and samples were analyzed with the LightCycler96 (Roche; Basel, Switzerland). Cq values were normalized to PPIA and reported as relative fold change from untreated control.
On the technique in general: In qPCR the cycle at which signal appears reflects the starting amount.

The next data set concerns MDA-GSC17. Put plainly: qPCR of resistance-related genes, MDA-GSC17. It counts as cell-based, Human. Particulars: MDA-GSC17 (sensitive). The procedure: as §3
In another data set the test system is MDA-GSC20. Put plainly: qPCR of resistance-related genes, MDA-GSC20. It counts as cell-based, Human. The settings on record: MDA-GSC20 (resistant). Here is the method:
as §3

The next data set concerns MDA-GSC7-2. Put plainly: qPCR of resistance-related genes, MDA-GSC7-2. It counts as cell-based, Human. Particulars: MDA-GSC7-2 (sensitive). Here is the method:
as §3

As to `CN1CCN(C(=O)[C@H](CCCN[C@@H]2C[C@H]2c2ccc(F)cc2)NC(=O)c2ccc(-n3ccnn3)cc2)CC1` [IMG-7289], the IC50 was 32.1 µM with MDA-GSC 7–2; 56.1 µM with MDA-GSC 8–11; 41.2 µM in the data set on MDA-GSC 262; 34.2 µM in the data set with MDA-GSC 23; over 125 µM in the data set on MDA-GSC 311; 66.9 µM with MDA-GSC 20. The IC50 in the data set on MDA-GSC 17 worked out at 87.4 µM; with MDA-GSC 6–27, 39.9 µM; in the data set on NHA (NHA) it was 38.2 µM; in the data set on MDA-GSC 7–11, 23.6 µM. Besides, the “neurotoxic effects in human trials” value in data set [1] is given as “have not revealed any neurotoxic effects”. The “concentrations at which MDA-GSC viability was reduced” value in the data set on MDA-GSC lines is under 50 µM.
For the molecule `N[C@H]1CC[C@H](N[C@@H]2C[C@H]2c2ccccc2)CC1` [ORY-1001], the IC50 in the data set on MDA-GSC 7–2 was 87.7 µM; in the data set on MDA-GSC 8–11 it was 64.5 µM; with MDA-GSC 262 it was 92.7 µM; in the data set with MDA-GSC 23 it was 97.8 µM; in the data set with MDA-GSC 311 it was over 150 µM; with MDA-GSC 20, 54.8 µM. The IC50 in the data set on MDA-GSC 17 came to 107 µM; in the data set with MDA-GSC 6–27, 72.8 µM; in the data set with NHA (NHA), 96.3 µM; in the data set with MDA-GSC 7–11, 64.7 µM. In data set [1], the “neurotoxic effects in human trials” value is on record as “have not revealed any neurotoxic effects”. The “concentrations at which MDA-GSC viability was reduced” value in the data set with MDA-GSC lines fell in the range of 50 to 90 µM.
`Nc1nnc(CN[C@@H]2C[C@H]2c2ccc(OCc3ccccc3)cc2)o1` [ORY-2001]: the IC50 in the data set with MDA-GSC 7–2 is over 50 µM; with MDA-GSC 8–11, over 50 µM; in the data set on MDA-GSC 262, over 50 µM; in the data set on MDA-GSC 23, 48.1 µM; in the data set with MDA-GSC 311, 45.6 µM; in the data set on MDA-GSC 20, over 50 µM. Besides, the IC50 in the data set with MDA-GSC 17 was over 50 µM; in the data set on MDA-GSC 6–27, over 50 µM; in the data set with NHA (NHA), over 50 µM; in the data set with MDA-GSC 7–11, 42.1 µM; with MDA-GSC lines (Homo sapiens, majority of MDA-GSCs, maximum dose 50 μM) it was over 50 µM.
`CN1CCN(C(=O)CN[C@H]2C[C@@H]2c2ccc(OCc3ccccc3)cc2)CC1` [RN-1]: the IC50 with MDA-GSC 7–2 is over 50 µM; in the data set with MDA-GSC 8–11, over 50 µM; with MDA-GSC 262, over 50 µM; in the data set with MDA-GSC 23 it was over 50 µM; with MDA-GSC 311 it was over 50 µM; with MDA-GSC 20, 39.8 µM. Moreover, the IC50 in the data set on MDA-GSC 17 is 22.5 µM; in the data set on MDA-GSC 6–27, 23.8 µM; in the data set on NHA (NHA), over 50 µM; in the data set on MDA-GSC 7–11, over 50 µM. Besides, in the data set with NHA, the “effect on NHA viability” value is recorded as “minimal effect”. For the same molecule, the “concentrations at which MDA-GSC viability was reduced” value in the data set with MDA-GSC lines is 20 to 50 µM.
Turning to `C/C(=N\NC(=O)c1cccc(S(=O)(=O)N2CCN(C)CC2)c1)c1cc(Cl)ccc1O` [SP-2577], the IC50 in the data set on MDA-GSC 7–2 was 9.7 µM; in the data set with MDA-GSC 8–11, 12.4 µM; in the data set on MDA-GSC 262, 8.8 µM; with MDA-GSC 23 it was 16.8 µM; in the data set on MDA-GSC 311 it was 23.6 µM; in the data set on MDA-GSC 20, over 25 µM. The IC50 in the data set on MDA-GSC 17 is 15.7 µM; with MDA-GSC 6–27, 6.8 µM; in the data set on NHA (NHA), 2.3 µM; in the data set on MDA-GSC 7–11, 5.6 µM. Further, the “crossing of the blood brain barrier” value in data set [2] is reported as “has not been found to cross the blood brain barrier”. Also, in the data set with NHA (NHA, Figure 2J), the “activity in noncancerous cells, NHA” value is given as “strong activity”. In addition, the “concentrations at which MDA-GSC viability was reduced” value in the data set on MDA-GSC lines is on record as “less than 10 μM”.
Take `NC1CC1c1ccccc1` (stereo not shown) [TCP, tranylcypromine]: the IC50 in the data set on MDA-GSC 7–2 was 2700 µM; with MDA-GSC 8–11 it was over 5000 µM; with MDA-GSC 262 it was 4100 µM; in the data set on MDA-GSC 23, 2700 µM; in the data set on MDA-GSC 311, 3500 µM; in the data set with MDA-GSC 20 it was 4700 µM. Further, the IC50 in the data set on MDA-GSC 17 is 2200 µM; in the data set with MDA-GSC 6–27, over 5000 µM; in the data set with NHA (NHA) it was over 5000 µM; in the data set on MDA-GSC 7–11, over 5000 µM. Moreover, the “expression of resistance-related genes” value in the data set with MDA-GSC8-11 was “increase in two of the resistance related genes”; in the data set with MDA-GSC17 it was “did not significantly increase”. Also, in the data set on NHA, the “effect on NHA viability” value was “minimal effect”. Also, the “expression of resistance-related genes (FTH1, RAB39B, HKDC1, FAM213A)” value with MDA-GSC20 was “consistently increased”; with MDA-GSC7-2, “only minimal effects”. Moreover, the “effects on cell viability” value with MDA-GSC lines (MDA-GSC lines, Figure 2C) is reported as “not seen until mM concentrations”.
